This is an account of results in paper PMC7489219 (Molecular Brain, 2020).

pIC50: −log10 of the molar value. Structures can show the parent of a compound that is named as a salt.

For one test, the target named is T1, GluN2B (Homo sapiens, UniProt Q05586+Q13224).
T1 construct: gene GRIN2B; with GluN1 (Q05586)
Put plainly: automated patch clamp of HEK293 cells stably expressing human GluN1/GluN2B. It counts as cell-based. Background: In patch-clamp work, channel activity is measured electrically.

A further test addresses T2, GluN2A (Homo sapiens, UniProt Q05586+Q12879).
T2 construct: gene GRIN2A

For test [1], the system named is T3, primary mouse cortical neurons.
T3 construct: primary cortical neurons, DIV 10
The test can be described thus: cells. Further details: Protection from NMDA-induced (30 uM, 10 min) neuronal death; Hoechst nuclear morphology by automated microscopy. The settings on record: Cortical neurone, 20 h, read-out: % inhibition, inhibition of NMDA-induced cell death (protection score), 30 min pre-treatment. Summed up: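 On DIV 10, primary mouse cortical neurons were given compound at 10 μM for 30 min at 37 °C, then 30 μM NMDA for 10 min, washed, and kept 20 h with compound. Dead cells were scored by nuclear morphology, and % protection was derived from survival relative to vehicle + NMDA and untreated controls.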

T2 sequence (Q12879 23-1464, other chains not shown): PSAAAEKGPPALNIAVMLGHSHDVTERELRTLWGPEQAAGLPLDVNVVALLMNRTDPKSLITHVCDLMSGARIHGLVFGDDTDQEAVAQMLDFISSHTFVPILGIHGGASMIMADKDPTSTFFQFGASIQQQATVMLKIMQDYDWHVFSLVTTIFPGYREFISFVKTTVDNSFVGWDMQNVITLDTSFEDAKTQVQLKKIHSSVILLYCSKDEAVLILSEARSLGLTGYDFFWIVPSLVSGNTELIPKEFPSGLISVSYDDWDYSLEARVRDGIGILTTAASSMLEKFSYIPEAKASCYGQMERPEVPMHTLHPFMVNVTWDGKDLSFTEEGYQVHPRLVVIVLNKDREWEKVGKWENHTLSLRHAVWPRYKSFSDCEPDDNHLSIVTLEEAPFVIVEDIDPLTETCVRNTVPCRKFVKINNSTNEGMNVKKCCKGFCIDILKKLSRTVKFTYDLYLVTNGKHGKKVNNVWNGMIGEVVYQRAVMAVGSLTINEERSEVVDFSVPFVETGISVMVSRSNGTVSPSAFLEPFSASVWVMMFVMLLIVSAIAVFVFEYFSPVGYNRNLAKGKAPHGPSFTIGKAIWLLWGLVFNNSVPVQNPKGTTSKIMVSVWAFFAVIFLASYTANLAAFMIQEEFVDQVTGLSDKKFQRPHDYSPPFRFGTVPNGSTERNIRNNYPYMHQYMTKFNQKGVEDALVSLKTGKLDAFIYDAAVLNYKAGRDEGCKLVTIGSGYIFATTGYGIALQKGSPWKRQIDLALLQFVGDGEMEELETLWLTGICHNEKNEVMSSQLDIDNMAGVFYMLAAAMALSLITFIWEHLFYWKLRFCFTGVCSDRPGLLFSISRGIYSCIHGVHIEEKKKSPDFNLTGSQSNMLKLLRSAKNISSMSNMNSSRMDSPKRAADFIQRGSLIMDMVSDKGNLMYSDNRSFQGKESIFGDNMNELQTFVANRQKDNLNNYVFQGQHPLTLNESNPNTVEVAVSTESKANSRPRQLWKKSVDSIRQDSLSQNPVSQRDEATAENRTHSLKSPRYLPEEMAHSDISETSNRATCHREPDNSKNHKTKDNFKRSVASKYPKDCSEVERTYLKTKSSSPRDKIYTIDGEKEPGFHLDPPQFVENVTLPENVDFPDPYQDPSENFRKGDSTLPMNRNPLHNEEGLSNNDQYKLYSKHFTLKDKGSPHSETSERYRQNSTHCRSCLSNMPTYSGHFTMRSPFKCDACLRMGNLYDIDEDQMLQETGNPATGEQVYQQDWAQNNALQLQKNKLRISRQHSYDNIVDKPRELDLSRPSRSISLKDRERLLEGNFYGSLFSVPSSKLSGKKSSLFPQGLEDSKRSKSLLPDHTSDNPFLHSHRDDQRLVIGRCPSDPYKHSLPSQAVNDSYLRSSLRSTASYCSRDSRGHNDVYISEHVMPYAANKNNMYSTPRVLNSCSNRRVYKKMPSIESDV
T1 sequence (Q13224 27-1484, other chains not shown): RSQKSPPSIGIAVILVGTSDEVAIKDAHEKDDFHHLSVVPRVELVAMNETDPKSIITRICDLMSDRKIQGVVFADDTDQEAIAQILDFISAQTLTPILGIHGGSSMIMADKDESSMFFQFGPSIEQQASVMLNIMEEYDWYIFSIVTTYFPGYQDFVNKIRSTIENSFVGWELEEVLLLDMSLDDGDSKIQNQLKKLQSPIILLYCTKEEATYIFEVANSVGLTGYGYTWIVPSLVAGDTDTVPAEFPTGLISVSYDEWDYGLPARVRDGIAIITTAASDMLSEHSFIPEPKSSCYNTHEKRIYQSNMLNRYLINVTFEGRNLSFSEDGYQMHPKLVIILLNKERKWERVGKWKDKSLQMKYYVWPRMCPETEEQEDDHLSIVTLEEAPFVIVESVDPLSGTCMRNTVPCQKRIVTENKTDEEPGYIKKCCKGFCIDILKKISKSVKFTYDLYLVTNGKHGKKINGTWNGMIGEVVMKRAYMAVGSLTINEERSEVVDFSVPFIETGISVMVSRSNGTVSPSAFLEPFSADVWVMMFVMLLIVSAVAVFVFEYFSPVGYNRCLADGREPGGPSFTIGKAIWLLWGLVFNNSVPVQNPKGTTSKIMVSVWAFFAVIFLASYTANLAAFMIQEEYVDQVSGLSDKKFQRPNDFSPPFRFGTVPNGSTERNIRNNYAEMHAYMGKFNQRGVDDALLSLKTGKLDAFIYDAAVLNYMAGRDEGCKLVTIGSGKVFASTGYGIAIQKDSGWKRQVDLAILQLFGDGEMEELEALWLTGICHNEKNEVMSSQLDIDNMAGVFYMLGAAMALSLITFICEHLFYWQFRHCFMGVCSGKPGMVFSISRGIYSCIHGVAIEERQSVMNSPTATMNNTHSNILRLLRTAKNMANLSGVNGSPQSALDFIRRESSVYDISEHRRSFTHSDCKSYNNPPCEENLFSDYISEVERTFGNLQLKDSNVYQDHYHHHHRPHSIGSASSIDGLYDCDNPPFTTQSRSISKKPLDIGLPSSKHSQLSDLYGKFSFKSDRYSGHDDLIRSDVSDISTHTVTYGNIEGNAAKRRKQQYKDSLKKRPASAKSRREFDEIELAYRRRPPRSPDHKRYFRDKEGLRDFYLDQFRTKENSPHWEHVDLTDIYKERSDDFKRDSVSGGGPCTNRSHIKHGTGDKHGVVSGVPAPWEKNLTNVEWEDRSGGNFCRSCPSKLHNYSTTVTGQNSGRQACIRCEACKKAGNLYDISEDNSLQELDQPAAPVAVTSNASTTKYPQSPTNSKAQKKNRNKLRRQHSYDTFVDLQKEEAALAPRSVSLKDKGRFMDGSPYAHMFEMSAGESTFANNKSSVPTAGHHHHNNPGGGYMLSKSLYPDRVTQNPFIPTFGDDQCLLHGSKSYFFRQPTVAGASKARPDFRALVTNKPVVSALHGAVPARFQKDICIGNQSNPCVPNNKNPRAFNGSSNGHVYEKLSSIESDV

On to `N[C@H](CCCP(=O)(O)O)C(=O)O` [D-APV], for which the results for the negative-log IC50 (pIC50) against GluN2B and against GluN2A were 5.94 and 5.83, respectively. With `OCCOCCN1CCN(C2=Nc3ccccc3Sc3ccccc32)CC1` [Quetiapine fumarate (Seroquel)], the inhibition at 10 µM in test [1] was determined as 0.552%. As for `O=C(CCc1ccc(O)cc1)c1c(O)cc(O)cc1O[C@@H]1O[C@H](CO)[C@@H](O)[C@H](O)[C@H]1O` [Phlorizin (Phloridzin)], the inhibition at 10 µM in test [1] was -2.89%. Same read-out and setting: in the case of `C[C@@H](CN1CC(=O)NC(=O)C1)N1CC(=O)NC(=O)C1` [Dexrazoxane Hydrochloride] it was -16.2%. On the same count and under the same terms, in the case of `Cn1cnc2c1c(=O)[nH]c(=O)n2C` [Theobromine (3,7-Dimethylxanthine)] it was 0.993%; in that of `COc1cc(C(C)=O)ccc1O` [Apocynin (Acetovanillone)], -0.991%. On the same count and under the same terms, the value for `OC[C@@H](O)[C@@H](O)[C@H](O)[C@H](O)CO` [D-Mannitol (Osmitrol)] was 5.76%. Consider `COc1cc2c(cc1OC)[C@@H]1Cc3ccc(OC)c(OC)c3CN1CC2` [Rotundine], for which the inhibition at 10 µM in test [1] is -0.337%. As for `CC(=O)[C@H]1CC[C@H]2[C@@H]3CCC4=CC(=O)CC[C@]4(C)[C@H]3CC[C@]12C` [Progesterone (Prometrium)], the inhibition at 10 µM in test [1] came out at 7.11%. Regarding `CCCCCCCCCCC[C@@H](C[C@@H]1OC(=O)[C@H]1CCCCCC)OC(=O)[C@H](CC(C)C)NC=O` [Orlistat (Alli, Xenical)], the inhibition at 10 µM in test [1] was -9.87%. `Cn1c(=O)c2[nH]cnc2n(C)c1=O` [Aminophylline (Truphylline)]: the inhibition at 10 µM in test [1] was 12%. Consider `Cc1cc2c(C(C)C)c(O)c(O)c(C=O)c2c(O)c1-c1c(C)cc2c(C(C)C)c(O)c(O)c(C=O)c2c1O` [Gossypol], for which the inhibition at 10 µM in test [1] is -2.2%. Turning to `C#C[C@]1(O)CC[C@H]2[C@@H]3CCc4cc(OC)ccc4[C@H]3CC[C@@]21C` [Mestranol], the inhibition at 10 µM in test [1] was found to be 11.8%. The same measure, in the same setting: in the case of `O=c1cc(-c2ccc(O)c(O)c2)oc2cc(O)cc(O)c12` [Luteolin] it was -2.28%; in that of `CC[C@@]1([C@@H]2O[C@@H]([C@H]3O[C@@](O)(CO)[C@H](C)C[C@@H]3C)C[C@@H]2C)CC[C@H]([C@]2(C)CC[C@]3(C[C@H](O)[C@@H](C)[C@@H]([C@@H](C)[C@@H](OC)[C@H](C)C(=O)O)O3)O2)O1` [Monensin sodium salt (Coban)], 3.22%; in that of `O=C(O)Cc1ccccc1Nc1c(Cl)cccc1Cl` [Diclofenac], -4.34%. Still for that read-out and setting: the value for `CN1C(C(=O)Nc2ccccn2)=C(O)c2ccccc2S1(=O)=O` [Piroxicam (Feldene)] was 4.8%. On the same count and under the same terms, the value for `O=c1c2ccccc2nc2n1CCc1c-2[nH]c2ccccc12` [Rutaecarpine (Rutecarpine)] was 5.35%.

Broadly, the pIC50 is −log10 of the IC50, conventionally taken in molar units. Higher therefore signals a low IC50. The term inhibition denotes the drop in the measured response relative to a control, in per cent.
